Test results from PubChem BioAssay (NCI).
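Step 1: Grow cells in 96-well plates. Step 2: Expose to compound for 48 hours at 5 concentrations. Step 3: Interpolate endpoints linearly; if unreached, use highest concentration. TGI: concentration producing complete growth inhibition.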

What was measured:
Assay in all cases: growth of human tumour cells (NCI), 48 h
[1] = system: BT-549 breast
[2] = system: HT29 colon
[3] = system: T-47D breast
[4] = system: SN12C renal
[5] = system: SF-539 CNS
[6] = system: CCRF-CEM leukemia
[7] = system: CAKI-1 renal
[8] = system: SR leukemia
[9] = system: MDA-MB-435
[10] = system: SK-OV-3 ovarian
[11] = system: IGROV1 ovarian
[12] = system: RPMI-8226 leukemia
[13] = system: LOX IMVI melanoma
[14] = system: OVCAR-5 ovarian
[15] = system: KM12 colon
[16] = system: HCT-15 colon
[17] = system: 786-0 renal
[18] = system: OVCAR-4 ovarian
[19] = system: SNB-19 CNS
[20] = system: M14 melanoma
[21] = system: U251 CNS
[22] = system: SK-MEL-2 melanoma
[23] = system: NCI-H23 lung
[24] = system: COLO 205 colon
[25] = system: OVCAR-8 ovarian
[26] = system: HOP-62 NSCLC
[27] = system: MCF7 breast
[28] = system: HS 578T breast
[29] = system: EKVX NSCLC
[30] = system: A498 renal
[31] = system: MALME-3M melanoma
[32] = system: OVCAR-3 ovarian
[33] = system: NCI-H226 lung
[34] = system: A549 NSCLC
[35] = system: NCI-H522 lung
[36] = system: HOP-92 NSCLC
[37] = system: SK-MEL-28 melanoma
[38] = system: SNB-75 CNS
[39] = system: MDA-MB-231 breast
[40] = system: UACC-62 melanoma
[41] = system: SW-620 colon
[42] = system: RXF 393 renal
[43] = system: HL-60(TB) leukemia
[44] = system: NCI/ADR-RES ovarian
[45] = system: SF-295 CNS
[46] = system: NCI-H460 lung
[47] = system: UO-31 renal
[48] = system: SF-268 CNS
[49] = system: TK-10 renal
[50] = system: PC-3 prostate
[51] = system: HCC-2998 colon
[52] = system: ACHN renal
[53] = system: UACC-257 melanoma
[54] = system: MDA-N
[55] = system: SK-MEL-5 melanoma
[56] = system: K-562 leukemia
[57] = system: HCT-116 colon
[58] = system: MOLT-4 leukemia
[59] = system: DU-145 prostate

For `CCCCCCCCCCc1c2nc(c(CCCCCCCCCC)c3ccc([nH]3)c(CCCCCCCCCC)c3ccc([nH]3)c(CCCCCCCCCC)c3nc1C=C3)C=C2`, the TGI [1] was over 100 µM, the TGI [2] was over 100 µM and the TGI [3] was over 100 µM. For the same compound, the TGI [4] was over 100 µM, the TGI [5] was over 100 µM and the TGI [6] was over 100 µM. The TGI [7] was over 100 µM, the TGI [8] was over 100 µM and the TGI [9] was over 100 µM. For the same compound, the TGI [10] was over 100 µM, the TGI [11] was over 100 µM and the TGI [12] was over 100 µM. The TGI [13] was over 100 µM, the TGI [14] was over 100 µM and the TGI [15] was over 100 µM. It also gave a TGI [16] of over 100 µM, a TGI [17] of over 100 µM and a TGI [18] of over 100 µM. It also gave a TGI [19] of over 100 µM, a TGI [20] of over 100 µM and a TGI [21] of over 100 µM. The TGI [22] was over 100 µM, the TGI [23] was over 100 µM and the TGI [24] was over 100 µM. The TGI [25] was over 100 µM, the TGI [26] was over 100 µM and the TGI [27] was over 100 µM. For the same compound, the TGI [28] was over 100 µM, the TGI [29] was over 100 µM and the TGI [30] was over 100 µM. It also gave a TGI [31] of over 100 µM, a TGI [32] of over 100 µM and a TGI [33] of over 100 µM. For the same compound, the TGI [34] was over 100 µM, the TGI [35] was over 100 µM and the TGI [36] was over 100 µM. The TGI [37] was over 100 µM, the TGI [38] was over 100 µM and the TGI [39] was over 100 µM. It also gave a TGI [40] of over 100 µM, a TGI [41] of over 100 µM and a TGI [42] of over 100 µM. It also gave a TGI [43] of over 100 µM, a TGI [44] of over 100 µM and a TGI [45] of over 100 µM. For the same compound, the TGI [46] was over 100 µM, the TGI [47] was over 100 µM and the TGI [48] was over 100 µM. For the same compound, the TGI [49] was over 100 µM, the TGI [50] was over 100 µM and the TGI [51] was over 100 µM. For the same compound, the TGI [52] was over 100 µM, the TGI [53] was over 100 µM and the TGI [54] was over 100 µM. For the same compound, the TGI [55] was over 100 µM, the TGI [56] was over 100 µM and the TGI [57] was over 100 µM. The TGI [58] was over 100 µM and the TGI [59] was over 100 µM.
Compound `COc1ccc(/C=C2\N=C(N/N=C\C(O)C(O)C(O)C(O)CO)NC2=O)cc1` (configuration not stated) has a TGI [1] of 50.6 µM, a TGI [2] of over 100 µM and a TGI [3] of 27.7 µM. The TGI [4] was 52.2 µM, the TGI [5] was 38.5 µM and the TGI [6] was over 100 µM. For the same compound, the TGI [7] was over 100 µM, the TGI [8] was over 100 µM and the TGI [9] was 91.1 µM. The TGI [10] was 50.3 µM, the TGI [11] was over 100 µM and the TGI [12] was over 100 µM. The TGI [13] was over 100 µM, the TGI [14] was over 100 µM and the TGI [15] was over 100 µM. For the same compound, the TGI [16] was over 100 µM, the TGI [17] was over 100 µM and the TGI [18] was 53 µM. The TGI [20] was 35.7 µM, the TGI [21] was 42.7 µM and the TGI [22] was 36.6 µM. It also gave a TGI [23] of 54 µM, a TGI [24] of over 100 µM and a TGI [25] of 88.3 µM. It also gave a TGI [26] of 54.9 µM, a TGI [27] of over 100 µM and a TGI [28] of 71.7 µM. It also gave a TGI [29] of over 100 µM, a TGI [30] of 93 µM and a TGI [31] of 43.4 µM. The TGI [32] was 33.7 µM, the TGI [33] was over 100 µM and the TGI [34] was over 100 µM. For the same compound, the TGI [35] was 46 µM, the TGI [36] was 33.9 µM and the TGI [37] was over 100 µM. It also gave a TGI [38] of 54.3 µM, a TGI [39] of 88.5 µM and a TGI [41] of over 100 µM. It also gave a TGI [42] of over 100 µM, a TGI [43] of over 100 µM and a TGI [44] of over 100 µM. It also gave a TGI [45] of over 100 µM, a TGI [46] of over 100 µM and a TGI [47] of over 100 µM. It also gave a TGI [48] of 63.2 µM, a TGI [49] of over 100 µM and a TGI [50] of 69.5 µM. For the same compound, the TGI [51] was over 100 µM, the TGI [52] was over 100 µM and the TGI [53] was over 100 µM. The TGI [54] was 39.6 µM, the TGI [55] was over 100 µM and the TGI [56] was over 100 µM. For the same compound, the TGI [57] was over 100 µM, the TGI [58] was 62.3 µM and the TGI [59] was over 100 µM.
Compound `CN(C)CCn1c(=O)c2ccc(NCCCN(C)CCCNc3ccc4c(=O)n(CCN(C)C)c(=O)n5c6ccccc6c(=O)c3c45)c3c(=O)c4ccccc4n(c1=O)c23` has a TGI [1] of 1.75 µM, a TGI [2] of 1.06 µM and a TGI [3] of 8.33 µM. It also gave a TGI [4] of 1.18 µM, a TGI [5] of 1.78 µM and a TGI [6] of 0.0819 µM. It also gave a TGI [7] of 0.426 µM, a TGI [8] of 0.504 µM and a TGI [9] of 0.127 µM. It also gave a TGI [10] of 2.43 µM, a TGI [11] of 0.194 µM and a TGI [12] of 0.231 µM. It also gave a TGI [13] of 0.164 µM, a TGI [14] of 3.56 µM and a TGI [15] of 0.59 µM. For the same compound, the TGI [16] was 0.421 µM, the TGI [17] was 1.08 µM and the TGI [19] was 1.33 µM. It also gave a TGI [20] of 1.9 µM, a TGI [21] of 1.06 µM and a TGI [22] of 2.44 µM. For the same compound, the TGI [23] was 0.546 µM, the TGI [24] was 0.376 µM and the TGI [25] was 0.49 µM. The TGI [26] was 0.838 µM, the TGI [27] was 0.904 µM and the TGI [28] was 1.76 µM. It also gave a TGI [29] of 1.1 µM, a TGI [30] of 2.13 µM and a TGI [31] of 2.33 µM. The TGI [32] was 1.21 µM, the TGI [33] was 0.535 µM and the TGI [34] was 0.472 µM. The TGI [35] was 0.517 µM, the TGI [36] was 0.735 µM and the TGI [37] was 1.94 µM. It also gave a TGI [38] of 0.334 µM, a TGI [39] of 0.54 µM and a TGI [40] of 1.58 µM. The TGI [41] was 0.231 µM, the TGI [42] was 0.362 µM and the TGI [43] was 1.06 µM. The TGI [44] was 1.48 µM, the TGI [45] was 1.54 µM and the TGI [46] was 0.139 µM. It also gave a TGI [47] of 0.53 µM, a TGI [48] of 2.11 µM and a TGI [49] of 1.48 µM. For the same compound, the TGI [50] was 0.654 µM, the TGI [51] was 0.224 µM and the TGI [52] was 0.949 µM. It also gave a TGI [53] of 1.82 µM, a TGI [54] of 1.6 µM and a TGI [55] of 1.17 µM. The TGI [56] was 1.3 µM, the TGI [57] was 1.03 µM and the TGI [58] was 0.0853 µM. The TGI [59] was 0.533 µM.
`COc1nc(N)c(N=O)c(OCc2ccccc2)n1` gave a TGI [1] of over 10 µM, a TGI [2] of over 10 µM and a TGI [3] of 5.49 µM. It also gave a TGI [4] of over 10 µM, a TGI [5] of over 10 µM and a TGI [6] of 6.84 µM. The TGI [7] was over 10 µM, the TGI [8] was over 10 µM and the TGI [9] was over 10 µM. The TGI [10] was over 10 µM, the TGI [11] was over 10 µM and the TGI [12] was over 10 µM. For the same compound, the TGI [13] was over 10 µM, the TGI [14] was over 10 µM and the TGI [15] was over 10 µM. The TGI [16] was over 10 µM, the TGI [17] was over 10 µM and the TGI [18] was over 10 µM. It also gave a TGI [19] of over 10 µM, a TGI [20] of over 10 µM and a TGI [21] of over 10 µM. For the same compound, the TGI [22] was over 10 µM, the TGI [23] was over 10 µM and the TGI [24] was 2.37 µM. For the same compound, the TGI [25] was over 10 µM, the TGI [26] was over 10 µM and the TGI [27] was over 10 µM. It also gave a TGI [28] of over 10 µM, a TGI [29] of over 10 µM and a TGI [30] of over 10 µM. The TGI [31] was 5.97 µM, the TGI [32] was over 10 µM and the TGI [33] was over 10 µM. The TGI [34] was over 10 µM, the TGI [35] was 3.59 µM and the TGI [36] was over 10 µM. The TGI [37] was over 10 µM, the TGI [38] was over 10 µM and the TGI [39] was over 10 µM. For the same compound, the TGI [40] was over 10 µM, the TGI [41] was 4.35 µM and the TGI [42] was over 10 µM. It also gave a TGI [43] of over 10 µM, a TGI [44] of over 10 µM and a TGI [45] of over 10 µM. The TGI [46] was over 10 µM, the TGI [48] was over 10 µM and the TGI [49] was over 10 µM. The TGI [50] was over 10 µM, the TGI [51] was over 10 µM and the TGI [52] was over 10 µM. It also gave a TGI [53] of over 10 µM, a TGI [54] of over 10 µM and a TGI [55] of over 10 µM. It also gave a TGI [56] of over 10 µM, a TGI [57] of over 10 µM and a TGI [58] of over 10 µM. For the same compound, the TGI [59] was over 10 µM.
